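Dose response: 5 concentrations. Exposure: 48 h. Format: 96-well plates. Endpoint: linear interpolation; highest concentration if not reached. Abbreviation: GI50, concentration required for 50% inhibition of growth.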 Active and inactive are the calls of the source. Rule as the data show it: active = GI50 up to about 1.1 µM and inactive = higher.
Columns and labels:
Assay in all cases: NCI anticancer screen, dose series, 48 h
[1] = system: ACHN
[2] = system: CCRF-CEM
[3] = system: EKVX
[4] = system: HCT-116
[5] = system: HOP-92
[6] = system: HT-29
[7] = system: KM12
[8] = system: M14
[9] = system: Malme-3M
[10] = system: NCI-H23
[11] = system: NCI-H460
[12] = system: NCI-H522
[13] = system: OVCAR-3
[14] = system: OVCAR-5
[15] = system: RXF 393
[16] = system: SK-MEL-28
[17] = system: SNB-19
[18] = system: U-251
[19] = system: UACC-257
[20] = system: UACC-62

Measured: GI50

COC(=O)C1(NC(=O)C(N)CC(=O)O)C(C)C1C (stereo not given)
inactive: [1] > 100 µM | [2] > 100 µM | [3] > 100 µM | [4] > 100 µM | [5] > 100 µM | [6] > 100 µM | [7] > 100 µM | [8] > 100 µM | [9] > 100 µM | [10] > 100 µM | [11] > 100 µM | [12] > 100 µM | [13] > 100 µM | [14] > 100 µM | [15] > 100 µM | [16] > 100 µM | [17] > 100 µM | [18] > 100 µM | [19] > 100 µM | [20] > 100 µM

CC(C)(C)C(=O)Oc1ccc(/C=C/C(=O)c2ccc(OC(=O)C(C)(C)C)cc2)cc1
inactive: [1] > 100 µM | [2] 6.53 µM | [3] 81.1 µM | [4] 23.3 µM | [5] > 100 µM | [6] 47.3 µM | [7] 16.6 µM | [8] > 100 µM | [9] > 100 µM | [10] 35.7 µM | [11] > 100 µM | [12] 3.12 µM | [13] 27.5 µM | [14] > 100 µM | [15] 38.8 µM | [16] 97.3 µM | [17] 45.2 µM | [18] 40.2 µM | [19] 60.5 µM | [20] > 100 µM

COC(=O)CC1CC2(C(=O)OC)c3[nH]c4ccccc4c3CCN2C1=O (stereo not given)
inactive: [1] > 100 µM | [2] > 100 µM | [3] > 100 µM | [4] > 100 µM | [5] > 100 µM | [6] > 100 µM | [7] > 100 µM | [8] > 100 µM | [9] > 100 µM | [10] > 100 µM | [11] > 100 µM | [12] > 100 µM | [13] > 100 µM | [14] > 100 µM | [15] > 100 µM | [16] > 100 µM | [17] > 100 µM | [18] > 100 µM | [19] > 100 µM | [20] > 100 µM

CCCCCCCCCCCCCCCCCCN(C)CC(COP(=O)([O-])OCC[N+](C)(C)C)OC (stereo not given)
inactive: [1] 22.6 µM | [2] 5.4 µM | [3] 26.9 µM | [4] 15.5 µM | [5] 9.77 µM | [6] 4.94 µM | [7] 3.52 µM | [8] 9.84 µM | [9] 26.7 µM | [10] 20.2 µM | [11] 4.25 µM | [12] 9.51 µM | [13] 28.6 µM | [14] 4.51 µM | [15] 3.4 µM | [16] 38.3 µM | [17] 7.29 µM | [18] 4.9 µM | [19] 35.3 µM | [20] 11.2 µM

Reference: ChEMBL document CHEMBL1201862, “PubChem BioAssay data set” (2004)
